Results as given in patent US9169257B2, “Crystal forms of adefovir dipivoxil and processes for preparing the same” (Daewoong Pharmaceutical Co., Ltd., priority 2009, dated 2015).
One block for each compound: values may come before it.

How the values were obtained:
Type in all cases: physicochemical
[1] = Stability test (HPLC content and decomposition products, 5° C. and accelerated condition over 6 months)
Protocol: The novel Forms A and B of Examples 3 and 11 of the present invention, and 50 mg of the authentic adefovir dipivosil (purity: 99.5%) were precisely weighed into a 50 mL volumetric flask and dissolved in diluent. After making up to the mark, they were used as sample solution and standard solution, respectively. Analysis was carried out according to the following conditions, so that the contents of the novel Forms A and B, and the amounts of decomposition products of adefovir dipivoxil formed were calculated by the peak areas. The changes in the contents of novel crystal forms and the amounts of decomposition products were measured under 5° C. and accelerated condition over 6 months.
Instrument: Waters HPLC model 2695
Column: Allech Mixed Mode Anion exchange C8, 7 um 100 A pore size, 250 mm×4.6 mm
Mobile phase mixing condition was operated as follows: For 19 min, mobile phase A was changed from 100% to 0%, and mobile phase B was changed from 0% to 100%. After elution with mobile phase B 100% till 36 min, the elution was changed from mobile phase A 0% to 100% till 46 min.
Mobile phase A: buffer/acetonitrile (70:30, v/v)
Mobile phase B: buffer/acetonitrile (50:50, v/v)
Buffer: 9.2 g of K2HPO4 and 47.2 g of KH2PO4 were dissolved in 2 L of purified water
Diluent: 3.4 g of KH2PO4 was dissolved in 1 L of purified water and adjusted to pH 3.0
Detector wave length: 260 nm

[2] = Drying temperature conditions: transformation of the crystal form under vacuum drying; settings: for Crystal form: vacuum 0.1˜1.0 Torr
Protocol: Form A prepared by Example 3 was treated with various drying temperatures and drying times under the vacuum condition of 0.1˜1.0 Torr, and the resulting trans-formation of the crystal form is represented in Table 1.

[3] = Dissolution test of formulations; settings: for Dissolution rate (%): formulation per Example 1 of WO00/35460, average of 3
Protocol: Using the novel Form B prepared in Example 11 of the present invention and the Form I prepared in Example 1 of WO99/04774 as raw materials, each formulation was manufactured by the technique disclosed in Example 1 of WO00/35460. Dissolution rates were compared in 0.01N HCl solution, pH 1.2 buffer solution (NaCl 20 g+37% HCl 68˜70 mL+distilled water 9 L), pH 4.0 buffer solution (sodium acetate 7.38 g+acetic acid 25 mL+distilled water 9 L), pH 6.0 buffer solution (KH2PO4 68 g+NaOH+distilled water 10 L) and pH 7 distilled water. Experiments were repeated 3 times for each case, and the average values are represented in Table 4.

[4] = Accelerated (25° C., 60% RH), 0 month
[5] = Accelerated (25° C., 60% RH), 1 month
[6] = Accelerated (25° C., 60% RH), 3 months
[7] = Accelerated (25° C., 60% RH), 6 months
[8] = drying time 10 h, drying temperature 40° C.

Content ([1]; 5° C., 0 month): 100.26% | Total amount of decomposition product ([1]; 5° C., 0 month): 0.27% | Content ([1]; 5° C., 1 month): 99.45% | Total amount of decomposition product ([1]; 5° C., 1 month): 0.25% | Content ([1]; 5° C., 3 months): 100.43% | Total amount of decomposition product ([1]; 5° C., 3 months): 0.25% | Content ([1]; 5° C., 6 months): 100.2% | Total amount of decomposition product ([1]; 5° C., 6 months): 0.32% | Content [1, 4]: 100.26% | Total amount of decomposition product [1, 4]: 0.27% | Content [1, 5]: 99.68% | Total amount of decomposition product [1, 5]: 0.38% | Content [1, 6]: 99.50% | Total amount of decomposition product [1, 6]: 0.43% | Content [1, 7]: 100.06% | Total amount of decomposition product [1, 7]: 0.60% | Transformation of the crystal form ([2]; dried at 35 to 45° C.): transformed from Form A to Form B | Crystal form ([2]; drying time 10 h, drying temperature 25° C.): Form A (2 hydrate) | Crystal form ([2]; drying time 10 h, drying temperature 35° C.): Form B | Crystal form [2, 8]: Form B | Crystal form ([2]; drying time 10 h, drying temperature 42° C.): Form B | Crystal form ([2]; drying time 10 h, drying temperature 45° C.): Form B | Crystal form ([2]; drying time 10 h, drying temperature 50° C.): Mixture of Form B + | Crystal form ([2]; drying time 48 h, drying temperature 25° C.): Form A (2 hydrate) | Transformation of the crystal form ([2]; vacuum dried at 25° C.): not transformed to other crystal forms
SMILES: CC(C)(C)C(=O)OCOP(=O)(COCCN1C=NC2C(N)=NC=NC21)OCOC(=O)C(C)(C)C (single isomer, unassigned) [Form A, 9-[2-[phosphonomethoxy]ethyl]adenine bis-pivaloyloxymethyl ester]

Content ([1]; 5° C., 0 month): 100.48% | Total amount of decomposition product ([1]; 5° C., 0 month): 0.38% | Content ([1]; 5° C., 1 month): 100.34% | Total amount of decomposition product ([1]; 5° C., 1 month): 0.31% | Content ([1]; 5° C., 3 months): 99.18% | Total amount of decomposition product ([1]; 5° C., 3 months): 0.36% | Content ([1]; 5° C., 6 months): 99.74% | Total amount of decomposition product ([1]; 5° C., 6 months): 0.43% | Content [1, 4]: 100.48% | Total amount of decomposition product [1, 4]: 0.38% | Content [1, 5]: 98.85% | Total amount of decomposition product [1, 5]: 0.42% | Content [1, 6]: 100.25% | Total amount of decomposition product [1, 6]: 0.50% | Content [1, 7]: 99.32% | Total amount of decomposition product [1, 7]: 0.66% | Dissolution rate (%) ([3]; 0.01N HCl, 5 min): 85.25% | Dissolution rate (%) ([3]; 0.01N HCl, 10 min): 97.19% | Dissolution rate (%) ([3]; 0.01N HCl, 15 min): 99.65% | Dissolution rate (%) ([3]; 0.01N HCl, 30 min): 101.12% | Dissolution rate (%) ([3]; distilled water (pH 7), 5 min): 83.57% | Dissolution rate (%) ([3]; distilled water (pH 7), 10 min): 96.96% | Dissolution rate (%) ([3]; distilled water (pH 7), 15 min): 98.73% | Dissolution rate (%) ([3]; distilled water (pH 7), 30 min): 98.96% | Dissolution rate (%) ([3]; pH 1.2 buffer, 5 min): 93.77% | Dissolution rate (%) ([3]; pH 1.2 buffer, 10 min): 101.06% | Dissolution rate (%) ([3]; pH 1.2 buffer, 15 min): 102.03% | Dissolution rate (%) ([3]; pH 1.2 buffer, 30 min): 101.71% | Dissolution rate (%) ([3]; pH 4.0 buffer, 5 min): 87.18% | Dissolution rate (%) ([3]; pH 4.0 buffer, 10 min): 96.99% | Dissolution rate (%) ([3]; pH 4.0 buffer, 15 min): 98.21% | Dissolution rate (%) ([3]; pH 4.0 buffer, 30 min): 98.98% | Dissolution rate (%) ([3]; pH 6.0 buffer, 5 min): 88.62% | Dissolution rate (%) ([3]; pH 6.0 buffer, 10 min): 95.33% | Dissolution rate (%) ([3]; pH 6.0 buffer, 15 min): 98.01% | Dissolution rate (%) ([3]; pH 6.0 buffer, 30 min): 100.32% | Dissolution rate compared with the formulation utilizing the existing Form I ([3]; formulations, summary of Table 4): superior
SMILES: CC(C)(C)C(=O)OCOP(=O)(COCCN1C=NC2C(N)=NC=NC21)OCOC(=O)C(C)(C)C (single isomer, unassigned) [Form B, 9-[2-[phosphonomethoxy]ethyl]adenine bis-pivaloyloxymethyl ester]

Transformation of the crystal form ([2]; dried at 35 to 45° C.): not transformed to Form B | Crystal form [2, 8]: Form I | Crystal form ([2]; drying time 20 h, drying temperature 40° C.): Form I | Dissolution rate (%) ([3]; 0.01N HCl, 5 min): 88.11% | Dissolution rate (%) ([3]; 0.01N HCl, 10 min): 93.32% | Dissolution rate (%) ([3]; 0.01N HCl, 15 min): 95.48% | Dissolution rate (%) ([3]; 0.01N HCl, 30 min): 98.17% | Dissolution rate (%) ([3]; distilled water (pH 7), 5 min): 70.92% | Dissolution rate (%) ([3]; distilled water (pH 7), 10 min): 83.19% | Dissolution rate (%) ([3]; distilled water (pH 7), 15 min): 88.58% | Dissolution rate (%) ([3]; distilled water (pH 7), 30 min): 94.85% | Dissolution rate (%) ([3]; pH 1.2 buffer, 5 min): 95.24% | Dissolution rate (%) ([3]; pH 1.2 buffer, 10 min): 100.90% | Dissolution rate (%) ([3]; pH 1.2 buffer, 15 min): 101.38% | Dissolution rate (%) ([3]; pH 1.2 buffer, 30 min): 101.61% | Dissolution rate (%) ([3]; pH 4.0 buffer, 5 min): 83.38% | Dissolution rate (%) ([3]; pH 4.0 buffer, 10 min): 88.07% | Dissolution rate (%) ([3]; pH 4.0 buffer, 15 min): 89.76% | Dissolution rate (%) ([3]; pH 4.0 buffer, 30 min): 93.00% | Dissolution rate (%) ([3]; pH 6.0 buffer, 5 min): 74.89% | Dissolution rate (%) ([3]; pH 6.0 buffer, 10 min): 89.88% | Dissolution rate (%) ([3]; pH 6.0 buffer, 15 min): 94.58% | Dissolution rate (%) ([3]; pH 6.0 buffer, 30 min): 97.38%
SMILES: CC(C)(C)C(=O)OCOP(=O)(COCCN1C=NC2C(N)=NC=NC21)OCOC(=O)C(C)(C)C (single isomer, unassigned) [Form I, 9-[2-[phosphonomethoxy]ethyl]adenine bis-pivaloyloxymethyl ester, reference compound]
